Test results published in article PMC3397407 (Journal of Medicinal Chemistry, 2012).

Assays:
[1] = system: RXRE transcriptional activity (COS-1 cells transfected with pRXRE, phRXRα and pRL); experiment: RXRE-luciferase reporter gene assay; conditions: for absolute activity induced (firefly luciferase, not normalized): 24 h incubation conditions; for maximum enhancement of RXRE transcriptional activity: after 4–6 h of incubation
[2] = Metabolic stability with pooled human liver microsomes
[3] = 10 µM, glutathione 10 mM, NADPH, 60 min
[4] = rat, gavage 40 mg/kg daily for 3 days; cited from earlier work
[5] = In vivo disposition and metabolites of 3 in rats after gavage; set-up: species or system rat; conditions: after gavage of 3
[6] = Chemical stability of synthetic metabolite 4; format: physicochemical; conditions: air and moisture or DMSO solution
NFκB = NFκB luciferase assay; format: cell-based, Human

With `C=C(c1ccc(C(=O)O)cc1)c1cc2c(cc1C)C(C)(C)CCC2(C)C` [Compound 2, bexarotene, reference compound] as the compound, how does the “absolute activity induced (firefly luciferase, not normalized)” value [1] read?
The value was 22.4 ± 3.1 fold.

And the “maximum enhancement of RXRE transcriptional activity” value [1]?
Its value is 10 fold.

And the “RXRE IR” value ([1]; at 40 µM)?
Its value is 8.85±3.89.

Which results are given for `NCCCn1c2c(c3ccc(N)cc3c1=O)C(=O)c1ccccc1-2` [Compound 3, 3-amino-6-(3'-aminopropyl)-5H-indeno[1,2-c]isoquinoline-5,11-(6H)dione]?
elimination rate constant ([2]; 1 µM, 1 mg protein/mL, 60 min): 0.0053; CLint scaled at 1 µM ([2]; both, human, microsomes, pH 7.4): 5.33 mL/min/kg; formation of glutathione conjugates (electrophilic metabolites) [3]: no evidence of glutathione conjugates; concentration in liver [4]: 4.3 µg/g; concentration in mammary gland [4]: 0.3 µg/g; concentration in serum [4]: 800 ng/mL; RXRE Highest IR (maximum induction ratio) [1]: 7.67±0.37; absolute activity induced (firefly luciferase, not normalized) [1]: 40.5 ± 5.4 fold; RXRE induction ([1]; 24 h incubation, 5 µM): ~ 160 fold; induction ratio normalized on Renilla luciferase activity ([1]; 24 h incubation, Figure 9): exceeded 100 fold; maximum enhancement of RXRE transcriptional activity [1]: 5 fold

Which “metabolite detected in rat liver” value [5] does the source give for `NCCCn1c2c(c3ccc(N)cc3c1=O)C(O)c1ccccc1-2` (centres unmarked) [Compound 4, 3-Amino-6-(3-aminopropyl)-11-hydroxy-6,11-dihydro-5H-indeno[1,2-c]isoquinolin-5-one] here?
Its value is “detected in rat liver”.

And the “metabolite detected in rat mammary tissue” value [5]?
Its value is “not in serum or mammary tissue”.

And the chemical stability [6]?
The chemical stability was “rather unstable and slowly oxidized back to 3”.

For `CC(=O)Nc1ccc2c3c(n(CCCN)c(=O)c2c1)-c1ccccc1C3=O` [Compound 5, N-[6-(3-Aminopropyl)-5,11-dioxo-6,11-dihydro-5H-indeno[1,2-c]isoquinolin-3-yl]acetamide], which “metabolite detected in rat liver” value [5] is on record?
Its value is “detected”.

And the “metabolite detected in rat mammary tissue” value [5]?
Its value is “not in mammary tissue”.

And the “metabolite detected in rat serum” value [5]?
The value was “detected”.

What about the “activity as inducer of RXRE transcriptional activity, in words” value [1] of the same compound?
Its value is “moderately active at high concentrations”.

With `CC(=O)Nc1ccc2c3c(n(CCCN)c(=O)c2c1)-c1ccccc1C3O` (centres unmarked) [Compound 6, N-[6-(3-Aminopropyl)-11-hydroxy-5-oxo-6,11-dihydro-5H-indeno[1,2-c]isoquinolin-3-yl]acetamide] as the compound, how does the “metabolite observed in vivo using rats” value [5] read?
The value was “all except 6 and 10 were observed in vivo”.

For `Nc1ccc2c3c(n(CCCO)c(=O)c2c1)-c1ccccc1C3=O` [Compound 7, 6-(3-Hydroxypropyl)-3-amino-5H-indeno[1,2-c]isoquinoline-5,11(6H)dione], which “metabolite detected in rat liver” value [5] is on record?
The value was “detected in rat liver”.

What about the “metabolite detected in rat mammary tissue” value [5] of the same compound?
Its value is “not in serum or mammary tissue”.

With `Nc1ccc2c3c(n(CCCO)c(=O)c2c1)-c1ccccc1C3O` (centres unmarked) [Compound 8, 3-Amino-11-hydroxy-6-(3-hydroxypropyl)-6,11-dihydro-5H-indeno[1,2-c]isoquinolin-5-one] as the compound, how does the “metabolite detected in rat liver” value [5] read?
The value was “detected in rat liver”.

And the “metabolite detected in rat mammary tissue” value [5]?
Its value is “not in serum or mammary tissue”.

What about the “activity as inhibitor of NFκB, in words” value (NFκB) of the same compound?
The value was “inhibited activity as high concentrations”.

What does the source list for `CC(=O)Nc1ccc2c3c(n(CCCO)c(=O)c2c1)-c1ccccc1C3=O` [Compound 9, N-[6-(3-Hydroxypropyl)-5,11-dioxo-6,11-dihydro-5H-indeno[1,2-c]isoquinolin-3-yl]acetamide]?
metabolite detected in rat liver [5]: detected in rat liver; metabolite detected in rat mammary tissue [5]: not in serum or mammary tissue

Which “concentration range of NFκB inhibition, in words” value (NFκB) does the source give for `CNc1ccc2c3c(n(CCCNC(=O)OC(C)(C)C)c(=O)c2c1)-c1ccccc1C3O` (centres unmarked) [Compound 27] here?
Its value is “sub-µM concentrations”.

For `CNc1ccc2c3c(n(CCCN)c(=O)c2c1)-c1ccccc1C3O` (centres unmarked) [Compound 29], which “concentration range of NFκB inhibition, in words” value (NFκB) is on record?
Its value is “sub-µM concentrations”.

For `CNCCCn1c2c(c3ccc(N)cc3c1=O)C(O)c1ccccc1-2` (centres unmarked) [Compound 34], which “concentration range of NFκB inhibition, in words” value (NFκB) is on record?
Its value is “sub-µM concentrations”.
